Experimental findings from patent publication US20090012088A1 (priority 2005, published 2009) are described below.

“Also recorded” adds a separate entry of the source. Like-named read-outs stand apart in the source and are kept apart here.

Experiment [1] has as its system primary dopaminergic neurons from the midbrain of embryonic rats. The experiment is described as follows: Protection of primary dopaminergic neurons from rotenone (TH/MAP2 immunocytochemistry). The conditions noted are these: 100 nM rotenone, 48 h, % TH+ of MAP2+ cells. The format is cell-based, rat. Here is the method: With in vitro PARG inhibition, cell permeability, a structure-activity-relationship, and protection in cell culture models established, the protective properties of PIP-1 are evaluated in cultures of primary dopaminergic neurons taken from the midbrain of embryonic rats. After isolation, these neurons are treated with 100 nM rotenone and a range of PIP-1 concentrations. Cells are stained with antibodies to MAP2 and tyrosine hydroxylase (TH) to determine the proportion of dopaminergic neurons remaining.
Preparation of Primary Mesencephalic Cultures: Primary Midbrain Cultures are prepared using a modified version of a previously described protocol^2. All of the procedures involving animal handling are reviewed and approved by the Purdue Animal Care and Use Committee. […]
Treatment of primary cultures with rotenone and PIP-1: AraC-treated primary cultures are incubated in fresh media for 72 h. […] After 48 h, the cells are analyzed immunocytochemically as described below.
Immunocytochemistry: Primary cells are fixed in 4% (w/v) paraformaldehyde in PBS for 30 min. […] MAP2- and TH-immunoreactive primary neurons are counted in 10 randomly chosen observation fields for each experimental condition using a Nikon TE2000-U inverted fluorescence microscope at a total magnification of 200×. The data are expressed as the percentage of MAP2-positive neurons that are also TH-positive. […]

The target of a further experiment is PARG (Bos taurus, UniProt O02776). The experiment is described as follows: Inhibition of PARG activity in vitro (quantitation of free ADP-ribose with benzamidine, fluorescence). It is filed as biochemical. More on the design: purchased Biomol. On the procedure:
PARG assay: Production and purification of PAR. PARP-1 (20 units) is added to 900 μL of PARP assay buffer containing 1 mM NAD^+ and 22.5 μg activated DNA. This reaction was run at 37° C. for 30 min and stopped by the addition of 300 μL of cold 100% trichloroacetic acid. The proteins thus precipitated are collected by centrifugation at 18,000 g for 30 min at 4° C. After removal of the supernatant, 1 mL of 1 M NaOH and 100 mM EDTA are added to the pellet and incubated for 2 h at 37° C. to cleave the PAR from the PARP protein acceptor. Then 9 mL of PAR buffer A (250 mM ammonium acetate, 6 M guanidinium HCl, 10 mM EDTA, pH 9.0) is added to the PAR and applied to a PROSEP-PB (Millipore) phenyl boronate column that is pre-equilibrated with PAR buffer A. The flowthrough is then reapplied to the column to ensure that all PAR is bound. The column is then washed with 25 mL of PAR buffer A, followed by 10 mL of PAR buffer B (1 M ammonium acetate and 1 mM EDTA, pH 9.0). The bound PAR is eluted with 4 mL of water collected in 1-mL fractions. Fractions containing PAR are pooled and concentrated. The concentration, measured as monomer, is determined by measuring the absorbance at 258 nm. PAR has an extinction coefficient of 13,500 cm^−1 at 258 nm.
Inhibition of PARG Activity: To determine the PARG IC50 values of the compounds, 39 μL of a 25.6 μM solution of PAR in PARG assay (50 mM KCl, 50 mM KH2PO4, pH 7.2) buffer and 1 μL of the compounds at varying concentrations (in PARG assay buffer) are added into the wells of a 384-well plate. The reaction is initiated by the addition of 10 μL of PARG (Biomol) at a concentration of 1 ng/ml (in PARG assay buffer), bringing the final concentration to […] and 20 μM PAR with varying concentrations of compounds in a total volume of 50 μL. The plate is incubated for 20 min at room temperature. The amount of free ADP-ribose hemiacetals is determined by the addition of 5 μL of an aqueous 8.5M KOH solution and 5 μL of an aqueous 850 μM benzamidine solution to each well. The plate is then incubated for 10 min in an oven set at 110° C. The plate is allowed to cool and then read on a Criterion Analyst AD with an excitation of 360 nm and an emission of 445 nm.

Sequence of PARG (O02776 whole entry): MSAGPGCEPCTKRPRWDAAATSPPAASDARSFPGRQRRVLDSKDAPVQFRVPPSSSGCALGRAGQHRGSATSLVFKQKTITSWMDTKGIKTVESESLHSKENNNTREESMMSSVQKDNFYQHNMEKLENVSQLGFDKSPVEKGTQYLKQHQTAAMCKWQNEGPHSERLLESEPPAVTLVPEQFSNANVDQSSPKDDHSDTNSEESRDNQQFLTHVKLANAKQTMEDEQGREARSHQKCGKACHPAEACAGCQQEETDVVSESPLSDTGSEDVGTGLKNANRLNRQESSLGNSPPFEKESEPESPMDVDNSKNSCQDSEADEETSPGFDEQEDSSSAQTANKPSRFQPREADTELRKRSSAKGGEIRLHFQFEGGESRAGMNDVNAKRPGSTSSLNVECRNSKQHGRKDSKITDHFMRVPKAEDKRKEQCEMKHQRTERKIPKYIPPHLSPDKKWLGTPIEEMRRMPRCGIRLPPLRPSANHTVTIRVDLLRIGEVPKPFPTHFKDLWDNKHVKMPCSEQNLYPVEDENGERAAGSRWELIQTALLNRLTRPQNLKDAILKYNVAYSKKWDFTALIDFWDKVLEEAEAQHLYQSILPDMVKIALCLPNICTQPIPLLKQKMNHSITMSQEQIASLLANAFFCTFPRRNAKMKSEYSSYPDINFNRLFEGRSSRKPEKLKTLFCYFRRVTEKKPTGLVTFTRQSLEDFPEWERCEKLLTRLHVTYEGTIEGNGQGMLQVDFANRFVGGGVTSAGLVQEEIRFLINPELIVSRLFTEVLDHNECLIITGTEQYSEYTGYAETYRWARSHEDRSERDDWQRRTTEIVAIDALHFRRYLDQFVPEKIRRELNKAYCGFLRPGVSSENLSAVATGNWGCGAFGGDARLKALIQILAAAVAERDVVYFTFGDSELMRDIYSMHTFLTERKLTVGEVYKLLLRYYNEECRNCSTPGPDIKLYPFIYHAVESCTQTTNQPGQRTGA

Take `Nc1c(Cl)cnn(-c2ccccc2)c1=O` [compound 5, 4-Amino-5-chloro-2-phenyl-2H-pyridazin-3-one]: the “Protection of dopaminergic neurons from rotenone induced cell death” value in experiment [1] is on record as “no protection; also recorded: does not significantly protect”. The figures for the “PARG inhibition in vitro (in words)” value on PARG and at PARG (listed as analogue 5) were “inactive; also recorded: does not inhibit PARG” and “do not inhibit NAD^+ depletion or PARG activity”, respectively.

Regarding `CN(C)c1cnn(-c2ccccc2)c(=O)c1N` [PIP-1, 4-Amino-5-dimethylamino-2-phenyl-2H-pyridazin-3-one], in experiment [1], the “Protection of dopaminergic neurons from rotenone induced cell death” value is reported as “considerable protection; also recorded: protects dopaminergic neurons from rotenone induced cell death”. In addition, on PARG, it took 490 nM to reach half-maximal inhibition (IC50) and the “PARG inhibition in vitro (in words)” value is “inhibits PARG in vitro in a dose-dependent manner; also recorded: inhibits PARG in vitro in a dose dependent manner; also recorded: inhibit PARG activity in vitro”.
